In US12421235B2, “Bridged tricyclic carbamoylpyridone compounds and uses thereof” (Gilead Sciences, Inc., priority 2020, dated 2025):

Key:
[1] = High throughput microsomal stability assay (human liver microsomes); format: in vitro ADME; settings: for HLM stability: human liver microsomes, 1 uM compound, NADPH + UDPGA cofactors, 37 C
Protocol: Example 49: High Throughput Microsomal Stability Assay
Metabolic stability of compounds was assessed using Human, or Rat Liver Microsomal assays (Corning). In this assay, 10 nL compounds at concentration of 1 mM in 100% DMSO were dispensed into 384-well polypropylene plates using the Echo 550 acoustic liquid dispenser (Labcyte®). Each plate contained 384 wells with a single test compound in each well.
A solution of human (Corning® Gentest™ Human Mixed Pooled Microsomes), or rat (Corning® Gentest™ Rat [Sprague-Dawley] Pooled Liver Microsomes) liver microsomes at 2 mg/ml in 100 mM K2HPO4/KH2PO4 pH 7.4 with Alamethicin from Trichoderma viride (Sigma-Aldrich) 0.0225 mg/ml were incubated on ice for 15 minutes. 5 uL of this solution was added to individual wells following 15 minute incubation at room temperature; and supplemented with 5 uL NADPH Regenerating Solution of cofactors (Corning® Gentest™ UGT Reaction Mix) containing 100 mM K2HPO4/KH2PO4 pH 7.4, 2.6 mM NADP+, 6.6 mM glucose-6-phosphate, 6.6 mM MgCl2, 0.8 U/mL glucose-6-phosphate dehydrogenase, 0.1 mM Sodium Citrate, 6.8 mM uridine diphosphate-glucuronic acid. Final concentration of analyte compounds at the beginning of the reaction was 1 uM. The reactions were incubated at 37° C. and time points of 0, 5, 15, 30, 40, 50, 60, and 70 minutes were collected for further analysis. Background data were collected using reactions without analyte compounds.
Upon collection of the reaction time points, samples were quenched with 30 uL of a solution of 72% acetonitrile, 8% methanol, 0.1% formic acid, 19.9% water, and internal standard (IS). Reaction plates were span in a centrifuge at speed of 4,000 rcf for 30 minutes and 4° C., following a dilution of the 10 uL quenched reaction into 40 uL de-ionized water, yielding assay plates.
Assay plates were analyzed using solid-state extraction coupled with quadrupole time-of-flight mass spectrometer, using Agilent QToF 6530 RapidFire 360 system, with C4 type A solid state cartridges. Analysis was performed in either positive or negative ionization modes. Mobile phases contained 0.1% formic acid in water for loading analytes onto solid state extraction cartridges, and 0.1% formic acid in acetonitrile for elution into mass spectrometer in positive ionization mode, or 0.1% acetic acid in water for loading and 0.1% acetic acid in acetonitrile for extraction in negative ionization mode. Peak-area ratios of integrated counts for individual compounds to IS were plotted as semi-logarithmic chart of log vs time. Initial, linear portion of decay was fitted to a linear regression equation to derive half time of a compound decay.
Pharmacological parameters for an analyte compound metabolism were calculated using the following equations: […]
Where. Calculation of In Vitro Intrinsic Clearance
Concentration refers to the protein concentration (mg/mL) in the reaction.
Calculation of In Vivo Intrinsic Clearance
This scales the in vitro intrinsic clearance up to the value that would be predicted for the entire mass of liver tissue (but with no restriction by blood flow). The value depends upon the size of the liver (species-dependent) and the yield of microsomal protein as appropriate (assumed to be species-independent).
Calculation of Predicted Clearance
Hepatic clearance will depend upon the inter-relationship of intrinsic clearance and hepatic blood flow and can be predicted from in vitro data using a variety of approaches.
Calculation of Hepatic Extraction
This is simply the predicted clearance expressed as a proportion of hepatic blood flow. E=CL/QH*100%
Intrinsic clearance of the instant compounds, as well as for reference compounds A-F, were calculated following the procedure above.

[2] = Cytotoxicity assay in MT-4 cells; format: cell-based; settings: human, uninfected MT-4 cells, Cell Titer Glo
Protocol: (§1) Compounds were tested in a high-throughput 384-well assay format for their ability to inhibit the replication of HIV-1 (IIIB) in MT-4 cells. Compounds were serially diluted (1:3) in DMSO on 384-well polypropylene plates and further diluted 200-fold into complete RPMI media (10% FBS, 1% P/S) using the Biotek Micro Flow and Labcyte ECHO acoustic dispenser. Each plate contained up to 8 test compounds, with negative (No Drug Control) and 5 μM AZT positive controls. MT-4 cells were pre-infected with 10 μL of either RPMI (mock-infected) or a fresh 1:250 dilution of HIV-1 IIIB concentrated virus stock. Infected and uninfected MT-4 cells were further diluted in complete RPMI media and added to each plate using a Micro Flow dispenser. After 5 days incubation in a humidified and temperature controlled incubator (37° C.), Cell Titer Glo (Promega) was added to the assay plates and chemiluminescence read using an Envision plate-reader. EC50 values were defined as the compound concentration that causes a 50% decrease in luminescence signal, and were calculated using a sigmoidal dose-response model to generate curve fits. Cytotoxicity Assay in MT-4 Cells Assays were performed as above except uninfected MT-4 cells were added to each well containing test compound. In addition, 10 μM puromycin was added to the last column of each assay plate to assess a base level of cytotoxicity.

[3] = test system: HIV-1 (IIIB) in MT-4 cells; experiment: HIV MT-4 antiviral assay; format: cell-based; settings: Human immunodeficiency virus 1, MT4, 120 h, 5 days, Cell Titer Glo
Protocol: Example 47: HIV MT-4 Antiviral and Cytotoxicity Assay
Antiviral Assay in MT-4 Cells
as §1, with “fits.” for “fits. Cytotoxicity Assay in MT-4 Cells Assays were performed as above except uninfected MT-4 cells were added to each well containing test compound. In addition, 10 μM puromycin was added to the last column of each assay plate to assess a base level of cytotoxicity.”

[4] = test system: pLai RLuc reporter virus in MT-4 cells; experiment: HIV MT-4 serum shift antiviral reporter assay; format: cell-based; settings: Human immunodeficiency virus 1, MT4, 72 h, read-out: RLUC CCM
Protocol: Example 48: HIV MT-4 Serum Shift Antiviral Reporter Assay
To quantify the amount of protein binding to human serum, compounds were serially diluted (1:3) in DMSO and acoustically transferred onto 384-well assay plates via a Labcyte ECHO robot. Each plate contained up to 8 test compounds, including negative and positive controls, (DMSO, 5 μM AZT respectively). Assay plates were prepared in duplicate, and tested in either CCM (cell culture media) or HS/CCM (human serum/cell culture media). MT-4 cells were first pre-infected with pLai RLuc reporter virus for 2 h at 37° C., then further diluted in either CCM (RPMI media, 10% FBS, 1% P/S) or HS/CCM (RPMI media, 10% FBS, 50% HS, 1% P/S), and subsequently added to each plate using a Biotek Micro Flow dispenser. After a 72-h incubation in a humidified and temperature controlled incubator (37° C.), Renilla Glo (Promega) was added to all assay plates and chemiluminescence read using an Envision plate-reader. EC50 values were defined as the compound concentration that causes a 50% decrease in luminescence signal, and were calculated using a sigmoidal dose-response model to generate curve fits. To determine the amount of protein binding, EC50 fold shifts (or EC50 shifts) were calculated by dividing EC50 (HS/CCM)/EC50 (CCM). […]

Row | Structure (SMILES) | HLM stability [1] | CC50 at 5 days [2] | EC50 [3] | EC50 [4] | MS Cl improvement ([1]; relative to compound D)
1 | C[C@H]1CC[C@H](O)[C@@]2(C)CN1C(=O)c1c(O)c(=O)c(C(=O)NCc3ccc(F)cc3F)cn12 [Example 43, (3S,6S,7R)—N-(2,4-difluorobenzyl)-6,12-dihydroxy-3,7-dimethyl-1,11-dioxo-1,4,5,6,7,11-hexahydro-3H-2,7-methanopyrido[1,2-a][1,4]diazonine-10-carboxamide] | 4.83 mL/min/kg | 23600 nM | 1.3 nM | 0.71 nM | 
2 | [2H]C([2H])([2H])[C@]1(O)CC[C@H](C)N2C[C@H]1n1cc(C(=O)NCc3ccc(F)cc3F)c(=O)c(O)c1C2=O [Example 31, (1R,10S,13S)—N-[(2,4-difluorophenyl)methyl]-6,13-dihydroxy-10-methyl-5,8-dioxo-13-(trideuteriomethyl)-2,9-diazatricyclo[7.4.1.02,7]tetradeca-3,6-diene-4-carboxamide] | 3 mL/min/kg | 8230 nM | 2.1 nM | 0.36 nM | 
3 | CO[C@@H]1CC[C@H](C)N2C[C@H]1n1cc(C(=O)NCc3c(F)cc(F)cc3F)c(=O)c(O)c1C2=O [Example 6, (3S,6R,7R)-12-hydroxy-6-methoxy-3-methyl-1,11-dioxo-N-(2,4,6-trifluorobenzyl)-1,4,5,6,7,11-hexahydro-3H-2,7-methanopyrido[1,2-a][1,4]diazonine-10-carboxamide] | 4.83 mL/min/kg | 13000 nM | 1.4 nM | 0.5 nM | 2.3 times relative to compound D
4 | [2H]C([2H])([2H])[C@]1(O)C=C[C@H](C)N2C[C@H]1n1cc(C(=O)NCc3c(F)cc(F)cc3F)c(=O)c(O)c1C2=O [Example 29, (1R,10S,13S)-6,13-dihydroxy-10-methyl-5,8-dioxo-13-(trideuteriomethyl)-N-[(2,4,6-trifluorophenyl)methyl]-2,9-diazatricyclo[7.4.1.02,7]tetradeca-3,6,11-triene-4-carboxamide] | 1.83 mL/min/kg | 13000 nM | 2 nM | 0.74 nM | 
5 | C[C@H]1CC[C@H](O)[C@H]2CN1C(=O)c1c(O)c(=O)c(C(=O)NCc3c(F)cc(F)cc3F)cn12 [Example 2, (3S,6S,7R)-6,12-dihydroxy-3-methyl-1,11-dioxo-N-(2,4,6-trifluorobenzyl)-1,4,5,6,7,11-hexahydro-3H-2,7-methanopyrido[1,2-a][1,4]diazonine-10-carboxamide] | 2.5 mL/min/kg | 50000 nM | 1.8 nM | 0.53 nM | 
6 | C[C@H]1C=C[C@H](O)[C@H]2CN1C(=O)c1c(O)c(=O)c(C(=O)NCc3c(F)cc(F)cc3F)cn12 [Example 14, (3S,6S,7R)-6,12-dihydroxy-3-methyl-1,11-dioxo-N-(2,4,6-trifluorobenzyl)-1,6,7,11-tetrahydro-3H-2,7-methanopyrido[1,2-a][1,4]diazonine-10-carboxamide] | 2.67 mL/min/kg | 50000 nM | 4.2 nM |  | 
7 | CO[C@@]1(C)C=C[C@H](C)N2C[C@H]1n1cc(C(=O)NCc3c(F)cc(F)cc3F)c(=O)c(O)c1C2=O (single isomer, unassigned) [Example 24] | 11.5 mL/min/kg | 11100 nM | 2.2 nM |  | 
8 | [2H]C([2H])([2H])[C@]1(O)C=C[C@H](C)N2C[C@H]1n1cc(C(=O)NCc3ccc(F)cc3F)c(=O)c(O)c1C2=O [Example 30, (1R,10S,13S)—N-[(2,4-difluorophenyl)methyl]-6,13-dihydroxy-10-methyl-5,8-dioxo-13-(trideuteriomethyl)-2,9-diazatricyclo[7.4.1.02,7]tetradeca-3,6,11-triene-4-carboxamide] | 1.83 mL/min/kg | 7480 nM | 2.1 nM |  | 
9 | C[C@H]1C=C[C@H](OC(F)F)[C@H]2CN1C(=O)c1c(O)c(=O)c(C(=O)NCc3c(F)cc(F)cc3F)cn12 [Example 22, (3S,6S,7R)-6-(difluoromethoxy)-12-hydroxy-3-methyl-1,11-dioxo-N-(2,4,6-trifluorobenzyl)-1,6,7,11-tetrahydro-3H-2,7-methanopyrido[1,2-a][1,4]diazonine-10-carboxamide] | 14 mL/min/kg | 8910 nM | 1.7 nM |  | 
10 | C[C@H]1C=C[C@H](O)[C@H]2CN1C(=O)c1c(O)c(=O)c(C(=O)NCc3ccc(F)cc3F)cn12 [Example 20, (3S,6S,7R)—N-(2,4-difluorobenzyl)-6,12-dihydroxy-3-methyl-1,11-dioxo-1,6,7,11-tetrahydro-3H-2,7-methanopyrido[1,2-a][1,4]diazonine-10-carboxamide] | 1.83 mL/min/kg | 30000 nM | 2.8 nM |  | 
